From US8304422B2, “Compositions and methods for inhibition of the JAK pathway” (Rigel Pharmaceuticals, Inc., priority 2007, dated 2012) come the findings set out here.

Molecules are shown by their SMILES.

The assay has as its system BaF3 V617F cells; UKE-1. Kind of assay: Proliferation Assay (Cell Titer-Glo; Example 7). The class given is cell-based. The conditions noted are these: proliferation 72 hours, inhibit JAK2 activity, cell line (BaF3 V617F or UKE-1) not stated. Summed up: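 Proliferation IC50s reflect 72 h compound exposure at 37 °C, read by Cell Titer-Glo luminescence. Compound was serially diluted 3-fold from a 5 mM DMSO stock and added as a 2× solution; BaF3 V617F cells were grown in RPMI/10% FBS, UKE-1 in Iscove's DMEM with FBS, equine serum and hydrocortisone.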
In general terms: Cellular ATP, detected with luciferase, serves as a proxy for viable cell number.
What is called IC50 is the concentration needed to halve the response being measured. Molecule `COc1c(C)cc(Nc2ncc(C)c(Nc3ccc4c(c3)CCN(S(=O)(=O)C3CC3)C4)n2)cc1C` [VIII-9, N4-[(N-cyclopropylsulfonyl)-1,2,3,4-tetrahydroisoquinolin-6-yl]-N2-(3,5-dimethyl-4-methoxy)phenyl-5-methyl-2,4-pyrimidinediamine] came in with an IC50 of 179 nM.
The molecule `CCNS(=O)(=O)NCc1ccc(Nc2nc(Nc3ccc(N4CCN(C)CC4)cc3)ncc2C)cc1` [II-122, N4-[(4-(Ethylamino)sulfonylamino)methylphenyl]-5-methyl-N2-[4-(4-methyl-1-piperazinyl)phenyl]-2,4-pyrimidinediamine] returned an IC50 of 276 nM.
For the molecule `Cc1cc(Nc2ncc(Cl)c(Nc3cccc(S(=O)(=O)NC(C)(C)C)c3)n2)ccc1N1C[C@@H]2C[C@H]1CN2C` [I-22, 5-Chloro-N4-[(3-(1,1-dimethylethylamino)sulfonyl)phenyl]-N2-[3-methyl-4-[(1S,4S)-5-methyl-2,5-diazabicyclo[2.2.1]hept-2-yl]phenyl]-2,4-pyrimidinediamine], the IC50 was found to be 549 nM.
As to `CCNS(=O)(=O)NCc1cccc(Nc2nc(Nc3cc(C)c(OC)c(C)c3)ncc2C)c1` [II-133, N2-(3,5-Dimethyl-4-methoxyphenyl)-N4-[(3-(ethylamino)sulfonylamino)methylphenyl]-5-methyl-2,4-pyrimidinediamine], the IC50 turned out to be 209 nM.
Take `CN1CCN(c2ccc(Nc3ncc(Cl)c(Nc4ccc(CNS(N)(=O)=O)cc4)n3)cc2)CC1` [II-148, N4-[4-(Aminosulfonylamino)methylphenyl]-5-chloro-N2-[4-(4-methyl-1-piperazinyl)phenyl]-2,4-pyrimidinediamine]: the IC50 came to 1320 nM.
The figure for `COc1cc(Nc2ncc(Cl)c(Nc3ccc(CNS(=O)(=O)C4CC4)cc3)n2)cc(Cl)c1OC` [II-200, 5-Chloro-N4-[4-(N-cyclopropylsulfonylamino)methylphenyl]-N2-[3,4-dimethoxy-5-chlorophenyl]-2,4-pyrimidinediamine] is 276 nM; for `CCNS(=O)(=O)NCc1ccc(Nc2nc(Nc3cc(C)c(OCC)c(C)c3)ncc2Cl)c(C)c1` [II-143, 5-Chloro-N2-(3,5-dimethyl-4-ethoxyphenyl)-N4-[2-methyl-4-(ethylaminosulfonylamino)methylphenyl]-2,4-pyrimidinediamine] it is 252 nM; for `Cc1cc(CNS(=O)(=O)NC2CC2)ccc1Nc1nc(Nc2cc(C)c(OC(C)C)c(C)c2)ncc1Cl` [II-177, 5-Chloro-N2-(3,5-dimethyl-4-(1-methylethoxy)phenyl)-N4-[2-methyl-4-((N-cyclopropylamino)sulfonylamino)methylphenyl]-2,4-pyrimidinediamine] it is 643 nM.
The value for `Cc1cnc(Nc2ccc(N3CCN(C)CC3)cc2)nc1Nc1ccc2c(c1)C(NS(=O)(=O)C1CC1)CC2` (racemic) [V-4, (+/−)-N4-[1-(Cyclopropylsulfonylamino)indan-6-yl]-5-methyl-N2-[4-(4-methyl-1-piperazinyl)phenyl]-2,4-pyrimidinediamine] was 686 nM; that for `CCOc1c(C)cc(Nc2ncc(C)c(Nc3ccc(CNS(=O)(=O)NC4CC4)cc3)n2)cc1C` [II-163, N4-[4-((N-Cyclopropylamino)sulfonylamino)methylphenyl]-N2-(3,5-dimethyl-4-ethoxyphenyl)-5-methyl-2,4-pyrimidinediamine] was 63.6 nM; that for `Cc1cc(Nc2ncc(Cl)c(Nc3ccc(CNS(=O)(=O)NC4CC4)cc3)n2)ccc1N1CCN(C)CC1` [II-168, 5-Chloro-N4-[4-((N-cyclopropylamino)sulfonylamino)methylphenyl]-N2-[3-methyl-4-(4-methyl-1-piperazinyl)phenyl]-2,4-pyrimidinediamine] was 2050 nM.
Consider `O=S(=O)(NCc1ccc(Nc2nc(Nc3ccc(N4CCN(C5CC6CCC5C6)CC4)cc3)ncc2Cl)cc1)C1CC1` (stereo not drawn) [II-61, N-(4-(2-(4-(4-(bicyclo[2.2.1]heptan-2-yl)piperazin-1-yl)phenylamino)-5-chloropyrimidin-4-ylamino)benzyl)cyclopropanesulfonamide], for which the IC50 worked out at 5970 nM.
The value for `Cc1cc(CNS(=O)(=O)C2CC2)cc(Nc2nc(Nc3ccc(N4CCN(C5CC6CCC5C6)CC4)cc3)ncc2C)c1` (stereo not drawn) [II-77, N-(3-(2-(4-(4-(bicyclo[2.2.1]heptan-2-yl)piperazin-1-yl)phenylamino)-5-methylpyrimidin-4-ylamino)-5-methylbenzyl)cyclopropanesulfonamide] was 1320 nM.
The figure for `COc1cc(Nc2ncc(C)c(Nc3ccc4c(c3)C(NS(=O)(=O)C3CC3)CC4)n2)cc(OC)c1OC` (racemic) [V-3] is 1640 nM; for `CN1CCN(c2ccc(Nc3ncc(Cl)c(Nc4ccc(CNS(=O)(=O)N(C)C)cc4)n3)cc2)CC1` [II-96, 5-Chloro-N4-[(4-(dimethylamino)sulfonylamino)methylphenyl]-N2-[4-(4-methyl-1-piperazinyl)phenyl]-2,4-pyrimidinediamine] it is 91 nM.
In turn, `COc1c(C)cc(Nc2ncc(C)c(Nc3ccc4c(c3)[C@H](NS(C)(=O)=O)CC4)n2)cc1C` [V-10] gave an IC50 of 673 nM.
Take `Cc1nc2cc(Nc3ncc(Cl)c(Nc4cccc(CNS(=O)(=O)C5CC5)c4)n3)ccc2[nH]1` [III-7, 5-Chloro-N4-[3-(N-cyclopropylsulfonylaminomethyl)phenyl]-N2-[2-methylbenzamidazol-5-yl]-2,4-pyrimidinediamine]: the IC50 came out at 644 nM.
The figure for `CCN1CCN(c2ccc(Nc3ncc(C)c(Nc4ccc(CCNS(=O)(=O)C5CC5)cc4)n3)c(C(F)(F)F)c2)CC1` [II-74] is 1490 nM; for `CCNS(=O)(=O)NCc1ccc(Nc2nc(Nc3ccc(N4CCN(C)CC4)c(C)c3)ncc2Cl)c(C)c1` [II-145, 5-Chloro-N4-[2-methyl-4-(ethylaminosulfonylamino)methylphenyl]-N2-[3-methyl-4-(4-methyl-1-piperazinyl)phenyl]-2,4-pyrimidinediamine] it is 3980 nM; for `Cc1cc(Nc2ncc(Cl)c(Nc3ccc4c(c3)S(=O)(=O)NCC4)n2)cc(C)c1C` [VII-9, 5-Chloro-N4-[3,4-dihydro-1,1-dioxide-2H-1,2-benzothiazin-7-yl]-N2-[3,4,5-trimethylphenyl]-2,4-pyrimidinediamine] it is 1340 nM.
With `CCS(=O)(=O)N1CCc2c(cccc2Nc2nc(Nc3ccc(N4CCN(C)CC4)cc3)ncc2Cl)C1` [VI-1, 5-Chloro-N2-[4-(4-methyl-1-piperazinyl)phenyl]-N4-[1,2,3,4-tetrahydro-2-(ethylsulfonyl)-5-isoquinolinyl]-2,4-pyrimidinediamine], inhibition was half-maximal at 473 nM (IC50).
`Cc1cnc(Nc2cc(C3CC3)n[nH]2)nc1Nc1ccc(CNS(=O)(=O)C2CC2)cc1` [VIII-11, 5-Methyl-N4-[4-(N-cyclopropylsulfonylamino)methylphenyl]-N2-[5-cyclopropylpyrazol-3-yl)-2,4-pyrimidinediamine] yielded an IC50 of 388 nM.
The figure for `CCOc1c(C)cc(Nc2ncc(Cl)c(Nc3ccc(CNS(=O)(=O)NC4CC4)cc3)n2)cc1C` [II-155, 5-Chloro-N4-[4-((N-cyclopropylamino)sulfonylamino)methylphenyl]-N2-(3,5-dimethyl-4-ethoxyphenyl)-2,4-pyrimidinediamine] is 83.1 nM; for `CN1CCN(c2ccncc2Nc2ncc(Cl)c(Nc3ccc(CNS(=O)(=O)C4CC4)cc3)n2)CC1` [II-216, 5-Chloro-N4-[4-(N-cyclopropylsulfonylamino)methylphenyl]-N2-[4-(N-methylpiperizin-4-yl)pyridine-3-yl]-2,4-pyrimidinediamine] it is 246 nM; for `Cc1cnc(Nc2ccc(OCCN3CC(C)OC(C)C3)cc2)nc1Nc1ccc(CCNS(=O)(=O)C2CC2)cc1` (stereo not drawn) [II-65] it is 327 nM.
For the molecule `CCNS(=O)(=O)NCc1cccc(Nc2nc(Nc3cc(C)c(OCC)c(C)c3)ncc2Cl)c1` [II-130, 5-Chloro-N2-(3,5-dimethyl-4-ethoxyphenyl)-N4-[(3-(ethylamino)sulfonylamino)methylphenyl]-2,4-pyrimidinediamine], half-maximal inhibition (IC50) required 140 nM.
The figure for `CN1CCN(c2ccc(Nc3ncc(Cl)c(Nc4ccc(CCNS(=O)(=O)C5CC5)cc4)n3)cc2)CC1` [II-51, 5-Chloro-N4[4-(N-cyclopropylsulfonylamino)ethylphenyl]-N2-[4-(4-methylpiperazino)phenyl]-2,4-pyrimidinediamine] is 1070 nM; for `COc1cc(Nc2ncc(Cl)c(Nc3cccc(CNS(=O)(=O)C4CC4)c3)n2)cc(OC)c1OC` [II-189, 5-Chloro-N4-[3-(N-cyclopropylsulfonylamino)methylphenyl]-N2-[3,4,5-trimethoxyphenyl]-2,4-pyrimidinediamine] it is 546 nM.
The figure for `Cc1cnc(Nc2ccc(N3CCN(C)CC3)cc2C(F)(F)F)nc1Nc1ccc(CCNS(=O)(=O)C2CC2)cc1` [II-70] is 1390 nM.
The value for `CCNS(=O)(=O)NCc1ccc(Nc2nc(Nc3cc(C)c(OC)c(C)c3)ncc2Cl)c(C)c1` [II-142, 5-Chloro-N2-(3,5-dimethyl-4-methoxyphenyl)-N4-[2-methyl-4-(ethylaminosulfonylamino)methylphenyl]-2,4-pyrimidinediamine] was 485 nM.
